The structures appear in SMILES notation.

For this assay, the target named is C-C chemokine receptor type 5 (Homo sapiens, UniProt P51681). The assay is described as follows: Displacement of [125I]MIP1-alpha from human CCR5/CD4 expressed in HEK293 cells. In kind it is cell-based. In general terms: Loss of bound radioactivity is the signal in a displacement assay; it reports binding, not function.
Sequence of C-C chemokine receptor type 5 (P51681 whole entry): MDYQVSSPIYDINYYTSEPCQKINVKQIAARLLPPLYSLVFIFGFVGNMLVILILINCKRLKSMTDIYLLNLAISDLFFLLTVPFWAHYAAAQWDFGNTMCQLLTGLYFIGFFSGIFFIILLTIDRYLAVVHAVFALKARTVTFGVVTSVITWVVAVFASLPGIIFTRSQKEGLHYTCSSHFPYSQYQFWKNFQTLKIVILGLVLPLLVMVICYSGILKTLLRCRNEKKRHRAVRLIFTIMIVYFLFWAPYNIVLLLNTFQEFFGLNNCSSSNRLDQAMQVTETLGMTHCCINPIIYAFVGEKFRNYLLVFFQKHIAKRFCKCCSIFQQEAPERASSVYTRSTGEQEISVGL
As usually defined, the IC50 is the concentration that gives 50% inhibition. Higher therefore signals a need for much substance. In the case of `N=C(N)N/N=C/c1ccc(Cl)cc1OCc1ccc(Cl)cc1`, the IC50 is above 30000 nM.

For the compound `COC(=O)c1cccc(COc2ccc(Br)cc2/C=N/NC(=N)N)c1`, the half-maximal inhibitory concentration (IC50) stood at 1600 nM.

As for `COc1cc(Br)cc(/C(C)=N/NC(=N)N)c1OCc1ccc(C#N)cc1`, the half-maximal inhibitory concentration (IC50) came to 93 nM.

For `N=C(N)N/N=C/c1cc(Br)ccc1OCc1ccc(OCc2ccccc2)cc1`, the IC50 came out at 2900 nM.

`CN(/N=C/c1cc(Br)ccc1OCc1ccc(Cl)cc1)C1=NCCN1` registered a half-maximal inhibitory concentration (IC50) of 14000 nM.

In turn, `N#Cc1cccc(COc2ccc(Br)cc2/C=N/NC(=N)N)c1` yielded an IC50 of 2000 nM.

`N=C(N)N/N=C/c1ccccc1OCc1ccc(Cl)cc1` returned an IC50 above 30000 nM.

The compound `N=C(N)N/N=C/c1cccc(Cl)c1OCc1ccc(Cl)cc1` showed an IC50 above 30000 nM.

`N=C(N)N/N=C/c1cc(Br)ccc1OCc1ccc(F)cc1` yielded a half-inhibitory concentration (IC50) of 800 nM.

`CCN(CC)Cc1cc(Br)ccc1OCc1ccc(Cl)cc1`: the IC50 turned out to be 1400 nM.

Consider `Clc1ccc(COc2ccc(Br)cc2CN2CCOCC2)cc1`, for which the IC50 stood at 1000 nM.

Consider `N#Cc1ccc(COc2ccc(Br)cc2/C=N/NC(=N)N)cc1`, for which the IC50 was determined as 480 nM.

Take `N=C(N)N/N=C/c1cc(Br)ccc1OCc1ccc(-c2ccccc2)cc1`: the half-inhibitory concentration (IC50) stood at 1700 nM.

In turn, `C/C(=N\NC(=N)N)c1cc(Cl)ccc1OCc1ccc(Cl)cc1` yielded a half-maximal inhibitory concentration (IC50) of 140 nM.

`CC/C(=N\NC(=N)N)c1cc(Br)cc(OC)c1OCc1ccc(Cl)cc1` had a half-inhibitory concentration (IC50) of 400 nM.

`CCCC/C(=N\NC(=N)N)c1cc(Cl)ccc1OCc1ccc(F)cc1` displayed an IC50 of 4200 nM.

As for `COc1cc(Br)cc(/C=N/NC(=N)N)c1OCc1ccc(Cl)cc1`, the IC50 was above 30000 nM.

As for `C/C(=N/NC(=N)N)c1cc(Cl)ccc1OCc1ccc(Cl)cc1`, the IC50 is 8500 nM.

`CN(C)Cc1cc(Br)ccc1OCc1ccc(Cl)cc1` showed an IC50 of 600 nM.

For the compound `Cc1ccc(COc2ccc(Br)cc2/C=N/NC(=N)N)cc1`, the 50% inhibitory concentration (IC50) was found to be 500 nM.

With `COC(=O)c1ccc(OCc2ccc(Cl)cc2)c(/C=N/NC(=N)N)c1`, the IC50 is above 30000 nM.

Consider `Clc1ccc(COc2ccc(Br)cc2/C=N/NC2=NCCCN2)cc1`, for which the IC50 is 2000 nM.

The compound `N=C(N)N/N=C/c1cccc(F)c1OCc1ccc(Cl)cc1` displayed a half-maximal inhibitory concentration (IC50) above 30000 nM.

Compound `CCN(CC)c1ccc(OCc2ccc(Cl)cc2)c(/C=N/NC(=N)N)c1` returned a half-inhibitory concentration (IC50) above 30000 nM.

`N=C(N)N/N=C/c1cc(N)ccc1OCc1ccc(Cl)cc1` displayed a half-inhibitory concentration (IC50) above 30000 nM.

`N=C(N)N/N=C/c1cc(Cl)ccc1OCc1ccc(Cl)cc1`: the concentration for half-maximal inhibition (IC50) came to 600 nM.

For the compound `N=C(N)N/N=C/c1cc(Br)ccc1OCc1ccc(Br)cc1`, the 50% inhibitory concentration (IC50) is 600 nM.

Regarding `COC(=O)c1ccc(COc2ccc(Br)cc2/C=N/NC(=N)N)cc1`, the concentration for half-maximal inhibition (IC50) is 1300 nM.

`C/C(=N\NC(=N)N)c1cc(Br)ccc1OCc1ccc(Cl)cc1` showed a 50% inhibitory concentration (IC50) of 200 nM.

`COc1ccc(COc2ccc(Br)cc2/C=N/NC(=N)N)cc1`: the half-maximal inhibitory concentration (IC50) came out at 700 nM.

On to `N=C(N)N/N=C/c1cc(Br)ccc1OCc1ccc(Cl)cc1`, for which the IC50 was determined as 840 nM.

With `N=C(N)N/N=C/c1cc(F)ccc1OCc1ccc(Cl)cc1`, the half-inhibitory concentration (IC50) was determined as 3400 nM.

The compound `COc1ccc([N+](=O)[O-])cc1COc1ccc(Br)cc1/C=N/NC(=N)N` registered an IC50 of 8700 nM.

The compound `Cc1cccc(COc2ccc(Br)cc2/C=N/NC(=N)N)c1` returned a half-inhibitory concentration (IC50) of 1700 nM.

In turn, `N=C(N)N/N=C/c1cc(Br)ccc1OCc1ccc([N+](=O)[O-])cc1` came in with a half-inhibitory concentration (IC50) of 900 nM.

On to `N=C(N)N/N=C/c1cc(Br)ccc1OCc1ccc(F)cc1F`, for which the IC50 stood at 3700 nM.

`N=C(N)N/N=C/c1cc(Br)ccc1OCc1cccc([N+](=O)[O-])c1` returned a 50% inhibitory concentration (IC50) of 1700 nM.

The compound `N=C(N)N/N=C/c1cc(Br)ccc1OCc1cccc2ccccc12` displayed an IC50 of 1100 nM.

Turning to `N=C(N)N/N=C/c1cc(Cl)cc(Cl)c1OCc1ccc(Cl)cc1`, the half-inhibitory concentration (IC50) was determined as 3100 nM.

`N=C(N)N/N=C/c1cc(Br)ccc1OCc1cccc(C(=O)O)c1` displayed an IC50 of 39000 nM.

Regarding `CC(C)(C)c1ccc(OCc2ccc(Cl)cc2)c(/C=N/NC(=N)N)c1`, the half-inhibitory concentration (IC50) is above 30000 nM.

`N=C(N)N/N=C/c1cc(Br)ccc1OCc1ccccc1[N+](=O)[O-]` showed an IC50 of 5700 nM.

The compound `N=C(N)N/N=C/c1cc([N+](=O)[O-])ccc1OCc1ccc(Cl)cc1` gave a half-inhibitory concentration (IC50) of 1200 nM.

The compound `Clc1ccc(COc2ccc(Br)cc2/C=N/NC2=NCCN2)cc1` registered an IC50 of 750 nM.

For `CC(C)C/C(=N\NC(=N)N)c1cc(Cl)ccc1OCc1ccc(F)cc1`, the 50% inhibitory concentration (IC50) is above 30000 nM.

In turn, `N=C(N)N/N=C/c1cc(Br)ccc1OCc1ccccc1` gave an IC50 of 1900 nM.

The compound `N#Cc1ccc(OCc2ccc(Cl)cc2)c(/C=N/NC(=N)N)c1` came in with a half-maximal inhibitory concentration (IC50) of 600 nM.

Values taken from ChEMBL document CHEMBL1138402, “CCR5 receptor antagonists: discovery and SAR study of guanylhydrazone derivatives” (Bioorg Med Chem Lett, 2007).
